Experiments:
Format in all cases: in vivo
[1] = tested on: redroot pigweed (Amaranthus retroflexus, AMARE); test: Post-emerge test, greenhouse herbicide activity screening; details: post-emerge; for AMARE phytotoxicity rating: 14 days after application, rating scale 0-100; for Post-emerge Herbicidal Activity AMARE: phytotoxicity rating 0-100 at 14 days after application
Summary of the method: (§1)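 Rating: 0–100 visual injury, 14 DAA. Application: acetone, 187 l/ha, 15–1000 g ai/ha, flat-fan track sprayer with nozzle 40–45 cm above soil or canopy. Post-emerge runs used 0.25% v/v surfactant on 2–3 leaf plants.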

[2] = tested on: barnyardgrass (Echinochloa crus-galli, ECHCG); test: as above; details: post-emerge; for ECHCG phytotoxicity rating: 14 days after application, rating scale 0-100; for Post-emerge Herbicidal Activity ECHCG: phytotoxicity rating 0-100 at 14 days after application
Summary of the method: as §1

[3] = tested on: velvetleaf (Abutilon theophrasti, ABUTH); test: as above; details: post-emerge; for ABUTH phytotoxicity rating: 14 days after application, rating scale 0-100; for Post-emerge Herbicidal Activity ABUTH: phytotoxicity rating 0-100 at 14 days after application
Summary of the method: as §1

[4] = tested on: sicklepod (Cassia obtusifolia, CASOB); test: as above; details: post-emerge; for CASOB phytotoxicity rating: 14 days after application, rating scale 0-100; for Post-emerge Herbicidal Activity CASOB: phytotoxicity rating 0-100 at 14 days after application
Summary of the method: as §1

[5] = tested on: large crabgrass (Digitaria sanguinalis, DIGSA); test: as above; details: post-emerge; for DIGSA phytotoxicity rating: 14 days after application, rating scale 0-100; for Post-emerge Herbicidal Activity DIGSA: phytotoxicity rating 0-100 at 14 days after application
Summary of the method: as §1

[6] = tested on: ivyleaf morningglory (Ipomoea hederacea, IPOHE); test: as above; details: post-emerge; for IPOHE phytotoxicity rating: 14 days after application, rating scale 0-100; for Post-emerge Herbicidal Activity IPOHE: phytotoxicity rating 0-100 at 14 days after application
Summary of the method: as §1

[7] = tested on: green foxtail (Setaria viridis, SETVI); test: as above; details: post-emerge; for SETVI phytotoxicity rating: 14 days after application, rating scale 0-100; for Post-emerge Herbicidal Activity SETVI: phytotoxicity rating 0-100 at 14 days after application
Summary of the method: as §1

[8] = tested on: lambsquarters (Chenopodium album, CHEAL); test: as above; details: post-emerge; for CHEAL phytotoxicity rating: 14 days after application, rating scale 0-100; for Post-emerge Herbicidal Activity CHEAL: phytotoxicity rating 0-100 at 14 days after application
Summary of the method: as §1

[9] = tested on: barnyardgrass (Echinochloa crus-galli, ECHCG); test: Pre-emerge test, greenhouse herbicide activity screening; details: for Pre-emerge herbicidal activity, phytotoxicity rating ECHCG: rating scale 0-100, 14 days after application
Summary of the method: (§2)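 Compounds in acetone were track-sprayed at 15–1000 g ai/ha: pre-emergence onto soil sown the previous day, then top-watered to incorporate and later bottom-watered; post-emergence onto 2–3 leaf plants with 0.25% v/v surfactant, bottom-watered only. Ratings on a 0–100 phytotoxicity scale were taken at day 14.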

[10] = tested on: johnsongrass (Sorghum halepense, SORHA); test: as above; details: for Pre-emerge herbicidal activity, phytotoxicity rating SORHA: rating scale 0-100, 14 days after application
Summary of the method: as §2

[11] = tested on: velvetleaf (Abutilon theophrasti, ABUTH); test: as above; details: for Pre-emerge herbicidal activity, phytotoxicity rating ABUTH: rating scale 0-100, 14 days after application
Summary of the method: as §2

[12] = tested on: sicklepod (Cassia obtusifolia, CASOB); test: as above; details: for Pre-emerge herbicidal activity, phytotoxicity rating CASOB: rating scale 0-100, 14 days after application
Summary of the method: as §2

[13] = tested on: large crabgrass (Digitaria sanguinalis, DIGSA); test: as above; details: for Pre-emerge herbicidal activity, phytotoxicity rating DIGSA: rating scale 0-100, 14 days after application
Summary of the method: as §2

[14] = tested on: ivyleaf morningglory (Ipomoea hederacea, IPOHE); test: as above; details: for Pre-emerge herbicidal activity, phytotoxicity rating IPOHE: rating scale 0-100, 14 days after application
Summary of the method: as §2

[15] = tested on: green foxtail (Setaria viridis, SETVI); test: as above; details: for Pre-emerge herbicidal activity, phytotoxicity rating SETVI: rating scale 0-100, 14 days after application
Summary of the method: as §2

[16] = tested on: lambsquarters (Chenopodium album, CHEAL); test: as above; details: for Pre-emerge herbicidal activity, phytotoxicity rating CHEAL: rating scale 0-100, 14 days after application
Summary of the method: as §2

[17] = tested on: field corn (Zea mays L., var. Dekalb 535, CORN); test: Pre-emerge test, crop safety; details: for Pre-emerge phytotoxicity rating, crop damage CORN: rating scale 0-100, 14 days after application
Summary of the method: (§3)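 Plants grown in 10 cm pots of sandy loam mix received acetone-dissolved compounds through a moving flat-fan nozzle. Doses ranged from 15 to 1000 g ai/ha. Pre-emerge pots were seeded one day earlier, post-emerge pots 8–21 days earlier. Fourteen days on, each pot was graded 0–100 for damage.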

[18] = tested on: upland rice (Oryza sp., var. Tebonnet, RICE); test: Pre-emerge test, crop safety; details: for Pre-emerge phytotoxicity rating, crop damage RICE: rating scale 0-100, 14 days after application
Summary of the method: as §3

[19] = tested on: redroot pigweed (Amaranthus retroflexus, AMARE); test: Pre-emerge test, greenhouse herbicide activity screening; details: for Pre-emerge herbicidal activity, phytotoxicity rating AMARE: rating scale 0-100, 14 days after application
Summary of the method: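 Compounds in acetone were track-sprayed at 187 l/ha, 15–1000 g ai/ha, onto sandy loam pots. Pre-emerge seeds were sown one day before spraying, with surface watering afterwards. Post-emerge plants were at the 2–3 leaf stage and sprayed with 0.25% v/v non-ionic surfactant. Injury was rated 0–100 at 14 days.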

[20] = tested on: field corn (Zea mays L., var. Dekalb 535, CORN); test: Post-emerge test, crop safety; details: post-emerge; for CORN phytotoxicity rating (crop damage): 14 days after application, rating scale 0-100; for Post-emerge Herbicidal Activity CORN: crop damage rating 0-100 at 14 days after application
Summary of the method: as §1

[21] = tested on: upland rice (Oryza sp., var. Tebonnet, RICE); test: Post-emerge test, crop safety; details: post-emerge; for RICE phytotoxicity rating (crop damage): 14 days after application, rating scale 0-100; for Post-emerge Herbicidal Activity RICE: crop damage rating 0-100 at 14 days after application
Summary of the method: as §1

[22] = 250 g ai/ha, phytotoxicity rating 0-100, 14 days after application
[23] = pre-emerge, 63 g ai/ha, 14 days after application, scale 0-100
[24] = 250 g ai/ha, crop damage rating 0-100, 14 days after application

SMILES: N#CCOc1c(Cl)cc(F)c(-n2c(=O)cc(C(F)(F)F)n(N)c2=O)c1NC(=O)c1ccc2ccccc2c1 [2-188]
- AMARE phytotoxicity rating ([1]; 63 g ai/ha): 85
- AMARE phytotoxicity rating ([1]; 250 g ai/ha): 90
- ECHCG phytotoxicity rating ([2]; 63 g ai/ha): 30
- ECHCG phytotoxicity rating ([2]; 250 g ai/ha): 40
- ABUTH phytotoxicity rating ([3]; 63 g ai/ha): 100
- ABUTH phytotoxicity rating ([3]; 250 g ai/ha): 100
- CASOB phytotoxicity rating ([4]; 63 g ai/ha): 55
- CASOB phytotoxicity rating ([4]; 250 g ai/ha): 90
- DIGSA phytotoxicity rating ([5]; 63 g ai/ha): 0
- DIGSA phytotoxicity rating ([5]; 250 g ai/ha): 10
- IPOHE phytotoxicity rating ([6]; 63 g ai/ha): 100
- IPOHE phytotoxicity rating ([6]; 250 g ai/ha): 100
- SETVI phytotoxicity rating ([7]; 63 g ai/ha): 10
- SETVI phytotoxicity rating ([7]; 250 g ai/ha): 20
- CHEAL phytotoxicity rating ([8]; 63 g ai/ha): 80
- CHEAL phytotoxicity rating ([8]; 250 g ai/ha): 100
- Pre-emerge Herbicidal Activity ECHCG [9, 22]: 60
- phytotoxicity rating ECHCG [9, 23]: 30
- Pre-emerge Herbicidal Activity SORHA [10, 22]: 30
- phytotoxicity rating SORHA [10, 23]: 10
- Pre-emerge Herbicidal Activity ABUTH [11, 22]: 100
- phytotoxicity rating ABUTH [11, 23]: 90
- Pre-emerge Herbicidal Activity CASOB [12, 22]: 0
- phytotoxicity rating CASOB [12, 23]: 0
- Pre-emerge Herbicidal Activity DIGSA [13, 22]: 60
- phytotoxicity rating DIGSA [13, 23]: 10
- Pre-emerge Herbicidal Activity IPOHE [14, 22]: 90
- phytotoxicity rating IPOHE [14, 23]: 10
- Pre-emerge Herbicidal Activity SETVI [15, 22]: 50
- phytotoxicity rating SETVI [15, 23]: 30
- Pre-emerge Herbicidal Activity CHEAL [16, 22]: 100
- phytotoxicity rating CHEAL [16, 23]: 100
- Pre-emerge Herbicidal Activity CORN [17, 24]: 0
- phytotoxicity rating CORN (crop damage) [17, 23]: 0
- Pre-emerge Herbicidal Activity RICE [18, 24]: 10
- phytotoxicity rating RICE (crop damage) [18, 23]: 10
- Pre-emerge Herbicidal Activity AMARE [19, 22]: 80
- phytotoxicity rating AMARE [19, 23]: 100
- CORN phytotoxicity rating (crop damage) ([20]; 63 g ai/ha): 25
- CORN phytotoxicity rating (crop damage) ([20]; 250 g ai/ha): 45
- RICE phytotoxicity rating (crop damage) ([21]; 63 g ai/ha): 20
- RICE phytotoxicity rating (crop damage) ([21]; 250 g ai/ha): 40

SMILES: COc1c(Cl)cc(F)c(N2C(=O)c3ccccc3C2=O)c1NC(=O)c1ccc(F)cc1F [13-4]
- Post-emerge Herbicidal Activity AMARE ([1]; 63 g ai/ha): 100
- Post-emerge Herbicidal Activity AMARE ([1]; 250 g ai/ha): 95
- Post-emerge Herbicidal Activity ECHCG ([2]; 63 g ai/ha): 10
- Post-emerge Herbicidal Activity ECHCG ([2]; 250 g ai/ha): 30
- Post-emerge Herbicidal Activity ABUTH ([3]; 63 g ai/ha): 100
- Post-emerge Herbicidal Activity ABUTH ([3]; 250 g ai/ha): 100
- Post-emerge Herbicidal Activity CASOB ([4]; 63 g ai/ha): 95
- Post-emerge Herbicidal Activity CASOB ([4]; 250 g ai/ha): 100
- Post-emerge Herbicidal Activity DIGSA ([5]; 63 g ai/ha): 0
- Post-emerge Herbicidal Activity DIGSA ([5]; 250 g ai/ha): 10
- Post-emerge Herbicidal Activity IPOHE ([6]; 63 g ai/ha): 85
- Post-emerge Herbicidal Activity IPOHE ([6]; 250 g ai/ha): 85
- Post-emerge Herbicidal Activity SETVI ([7]; 63 g ai/ha): 20
- Post-emerge Herbicidal Activity SETVI ([7]; 250 g ai/ha): 40
- Post-emerge Herbicidal Activity CHEAL ([8]; 63 g ai/ha): 95
- Post-emerge Herbicidal Activity CHEAL ([8]; 250 g ai/ha): 100
- Pre-emerge herbicidal activity, phytotoxicity rating ECHCG ([9]; 63 g ai/ha): 0
- Pre-emerge herbicidal activity, phytotoxicity rating ECHCG ([9]; 250 g ai/ha): 30
- Pre-emerge herbicidal activity, phytotoxicity rating SORHA ([10]; 63 g ai/ha): 10
- Pre-emerge herbicidal activity, phytotoxicity rating SORHA ([10]; 250 g ai/ha): 40
- Pre-emerge herbicidal activity, phytotoxicity rating ABUTH ([11]; 63 g ai/ha): 90
- Pre-emerge herbicidal activity, phytotoxicity rating ABUTH ([11]; 250 g ai/ha): 100
- Pre-emerge herbicidal activity, phytotoxicity rating CASOB ([12]; 63 g ai/ha): 0
- Pre-emerge herbicidal activity, phytotoxicity rating CASOB ([12]; 250 g ai/ha): 50
- Pre-emerge herbicidal activity, phytotoxicity rating DIGSA ([13]; 63 g ai/ha): 0
- Pre-emerge herbicidal activity, phytotoxicity rating DIGSA ([13]; 250 g ai/ha): 90
- Pre-emerge herbicidal activity, phytotoxicity rating IPOHE ([14]; 63 g ai/ha): 10
- Pre-emerge herbicidal activity, phytotoxicity rating IPOHE ([14]; 250 g ai/ha): 90
- Pre-emerge herbicidal activity, phytotoxicity rating SETVI ([15]; 63 g ai/ha): 30
- Pre-emerge herbicidal activity, phytotoxicity rating SETVI ([15]; 250 g ai/ha): 90
- Pre-emerge herbicidal activity, phytotoxicity rating CHEAL ([16]; 63 g ai/ha): 100
- Pre-emerge herbicidal activity, phytotoxicity rating CHEAL ([16]; 250 g ai/ha): 100
- Pre-emerge phytotoxicity rating, crop damage CORN ([17]; 63 g ai/ha): 0
- Pre-emerge phytotoxicity rating, crop damage CORN ([17]; 250 g ai/ha): 15
- Pre-emerge phytotoxicity rating, crop damage RICE ([18]; 63 g ai/ha): 0
- Pre-emerge phytotoxicity rating, crop damage RICE ([18]; 250 g ai/ha): 30
- Pre-emerge herbicidal activity, phytotoxicity rating AMARE ([19]; 63 g ai/ha): 60
- Pre-emerge herbicidal activity, phytotoxicity rating AMARE ([19]; 250 g ai/ha): 100
- Post-emerge Herbicidal Activity CORN ([20]; 63 g ai/ha): 5
- Post-emerge Herbicidal Activity CORN ([20]; 250 g ai/ha): 5
- Post-emerge Herbicidal Activity RICE ([21]; 63 g ai/ha): 30
- Post-emerge Herbicidal Activity RICE ([21]; 250 g ai/ha): 50
